Results: patent publication US11040937B2, “Amide derivative” (TOHOKU UNIVERSITY, priority 2014, dated 2021)

Tested on: A549/OPNluc cells
Experiment: WST assay for cell growth / cell viability
Assay type: cell-based, human
Details: Homo sapiens, A549, A549/OPNluc cells, 48±4 hours, WST-1; read-out: IC50 (concentration for 50% inhibition of cell growth)
Description: A reporter vector pOPN1-luc obtained by the insertion of a human OPN promoter sequence (−765 to 23) into the multiple cloning site of pGL-3 basic vector (Promega) expresses luciferase when transfected into animal cells. The pOPN1-luc was transfected into a human non-small cell lung cancer-derived cell line A549 together with pPUR (Clontech) that expresses a puromycin resistance gene (puromycin-N-acetyl-transferase gene), and then cells expressing luciferase which could grow a puromycin-supplemented medium were selected. The selected cells were named “A549/OPNluc cells” and used for observation of luciferase expression inhibitory effect under control of OPN promoter, as described below.
A test compound was added to a culture containing A549/OPNluc cells to observe its influence on the amount of luciferase expressed in the cells. Here, it can be considered that when the test compound has a cell cytotoxity or cell growth inhibitory effect, the total expression level of luciferase is reduced due to a reduction in the number of living cells that depends on the concentration of the test compound, and therefore the luciferase expression inhibitory effect of the test compound under control of OPN promoter cannot be properly evaluated. For this reason, WST assay for quantification of cell proliferation ability or cell viability by colorimetric measurement was firstly performed to determine IC50 (concentration for 50% inhibition of cell growth) of the test compound for cell growth. Then, luciferase activity measurement was performed to determine EC50 (concentration for 50% inhibition of luciferase expression) of the test compound for luciferase expression under control of OPN promoter.
A549/OPNluc cells were suspended in DMEM medium containing 10% fetal calf serum (FCS) and 1% penicillin/streptomycin (P/S) at 3×10^4 cells/mL to obtain a cell suspension, and then the cell suspension was dispensed into each well of a 96-well plate in an amount of 100 μL. In order to perform the assay in triplicate, wells were prepared for a control group, and 3 wells were prepared for each test compound-treated group at each concentration. After the dispensation, the 96-well plate was incubated in a CO2 incubator (at 37° C. and 5% CO2) for 24±4 hours.
The present compound was dissolved in dimethylsulfoxide (DMSO) to obtain a 50 mmol/L solution, and the compound solution was stored at −80° C. The compound solution was diluted with DMSO in 2-fold dilution series (usually, in the range of 0.31 mmol/L to 20 mmol/L) to prepare test compound solutions whose concentration varied by two fold for WST assay.
Each solution of only DMSO (control) and the diluted test compound (sample) was dispensed into each well containing the cell suspension in an amount of 0.5 μL (200-fold dilution). The solution in each well was mixed with a vortex mixer, and then the 96-well plate was incubated in a CO2 incubator (at 37° C. and 5% CO2) for 48±4 hours. Then, Premix WST-1 Reagent (TAKARA BIO INC.) was added in an amount of 10 μL to each well. The solution in each well was mixed with a vortex mixer, and then the 96-well plate was incubated at 37° C. and 5% CO2. After 60 minutes or 120 minutes, the absorbance values (450 nm) were measured with a microplate reader (Bio-Rad; Benchmark or Thermo Scientific; Varioskan Flash).
The absorbance values of the control wells and the sample wells at each concentration were input into an Excel file to determine the percentages of absorbance values of the sample wells at each concentration with to the average absorbance value of the control wells. From the determined values, a fitted curve was determined by the method of least squares to calculate IC50.

| Compound | IC50 |
| --- | --- |
| O=C(CCNC(=O)c1ccc(O)cc1)Nc1cccc(Oc2ccc(Cl)c(Cl)c2)c1 [Compound 38, N-(3-(3-(3,4-dichlorophenoxy)phenylamino)-3-oxopropyl)-4-hydroxybenzamide] | 17.3 µM |
| COc1ccc(Oc2cccc(C(=O)CCNC(=O)c3ccc(O)cc3)c2N)cc1 [Compound 6, N-(3-(2-Amino-3-(4-methoxyphenoxy)phenyl)-3-oxopropyl)-4-hydroxybenzamide] | 66 µM |
| COc1ccc(Oc2cccc(NC(=O)CCNC(=O)c3ccc(O)cc3)c2)cc1 [Compound 26, N-(3-(3-(4-Methoxyphenoxy)phenylamino)-3-oxopropyl)-4-hydroxybenzamide] | 86.2 µM |
| Nc1ccc(C(=O)NCCC(=O)c2cccc(Oc3ccc(Cl)cc3)c2N)cc1 [Compound 19, N-(3-(2-Amino-3-(4-chlorophenoxy)phenyl)-3-oxopropyl)-4-aminobenzamide] | > 100 µM |
